The results in this text go back to PubChem BioAssay AID1919010 (Molecular Pharmacology Branch, DTP, NCI, 2023).

For the assay, the system named is Hs578T complex spheroid growth, percent test/control. Description: Anticancer human tumor Hs578T cell line growth inhibition [AhR].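 As to all read-outs here: luminescent viability signal as a proxy for spheroid growth; spheroids exposed to agents for one week after three days of growth.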 The following applies: for viability, T/C: stronger effect = lower value. The method, boiled down: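 Spheroids combined tumor cells with HUVEC endothelial cells and human MSCs as stroma. AhR antagonists were paired with standard or investigational drugs, each dosed in half-log steps down from near clinical Cmax, or from 10 microM where Cmax was unknown.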

The structures appear in SMILES notation. “And” between values parts separate entries of the source, which are not always exact repeats. Equal values may be shown once.

As usually defined, the IC50 is the concentration at which inhibition is half-maximal. What is called viability, T/C is the result in the treated group divided by that in the control group, in per cent. Consider `CC1COCCN1c1cc(-c2ccnn2C)c2ccnc(-c3ccn[nH]3)c2n1` (configuration not stated) + CC(CO)NC(=O)c1cc(-c2ccc(Cl)cc2)nn(-c2cnn(C)c2)c1=O, for which the half-inhibitory concentration (IC50) (curve of first compound, second compound 0.1 µM) came out at 0.526 µM; the concentration for half-maximal inhibition (IC50) (curve of first compound, second compound 0.316 µM) is 0.778 µM; the IC50 (curve of first compound, second compound 1 µM) was found to be 0.615 µM; the IC50 (curve of first compound, second compound 3.16 µM) was found to be 0.384 µM; the IC50 (curve of first compound, second compound 10 µM) was determined as 0.86 µM. In addition, the viability, T/C is, setting by setting: (second compound 0.1 µM, first compound 0.00316 µM) 118%; (second compound 0.1 µM, first compound 0.01 µM) 117%; (second compound 0.1 µM, first compound 0.0316 µM) 114%; (second compound 0.1 µM, first compound 0.1 µM) 91.9%; (second compound 0.1 µM, first compound 0.316 µM) 53.6%; (second compound 0.1 µM, first compound 1 µM) 45.4%. Besides, the viability, T/C reads like this: (second compound 0.316 µM, first compound 0.00316 µM) 133%; (second compound 0.316 µM, first compound 0.01 µM) 124%; (second compound 0.316 µM, first compound 0.0316 µM) 112%; (second compound 0.316 µM, first compound 0.1 µM) 96%; (second compound 0.316 µM, first compound 0.316 µM) 59.7%; (second compound 0.316 µM, first compound 1 µM) 47.8%. Further, the viability, T/C (second compound 1 µM, first compound 0.00316 µM) is 123%; the viability, T/C (second compound 1 µM, first compound 0.01 µM) is 126%; the viability, T/C (second compound 1 µM, first compound 0.0316 µM) is 122%; the viability, T/C (second compound 1 µM, first compound 0.1 µM) was 89.8%; the viability, T/C (second compound 1 µM, first compound 0.316 µM) was 56.2%; the viability, T/C (second compound 1 µM, first compound 1 µM) is 45.5%. The viability, T/C is 121% (second compound 3.16 µM, first compound 0.00316 µM); 122% (second compound 3.16 µM, first compound 0.01 µM); 121% (second compound 3.16 µM, first compound 0.0316 µM); 86.9% (second compound 3.16 µM, first compound 0.1 µM); 51.6% (second compound 3.16 µM, first compound 0.316 µM); 46.2% (second compound 3.16 µM, first compound 1 µM). Moreover, the viability, T/C runs as follows: (second compound 10 µM, first compound 0.00316 µM) 121%; (second compound 10 µM, first compound 0.01 µM) 124%; (second compound 10 µM, first compound 0.0316 µM) 115%; (second compound 10 µM, first compound 0.1 µM) 74.5%; (second compound 10 µM, first compound 0.316 µM) 57.6%; (second compound 10 µM, first compound 1 µM) 45.9%.
Turning to `Nc1ncn(C2CC(O)C(CO)O2)c(=O)n1` (configuration not stated), the viability, T/C was 107% and 102% and 97.1% (compound 0.00316 µM); 104% (2×) and 97.5% (compound 0.01 µM); 117% and 101% and 103% (compound 0.0316 µM); 102% and 105% and 98.2% (compound 0.1 µM); 101% and 92.1% and 94.3% (compound 0.316 µM); 89.7% and 90.5% and 96.5% (compound 1 µM). Further, where the note is “curve of compound”, the concentration for half-maximal inhibition (IC50) is greater than 1 µM.
